# Reference: PMC11505594, “Design, Synthesis, and Anti-Melanogenic Activity of 2-Mercaptomethylbenzo[d]imidazole Derivatives Serving as Tyrosinase Inhibitors: An In Silico, In Vitro, and In Vivo Exploration” (Antioxidants, 2024)
# Read-outs that look alike come from different tables or passages of the source.
# Tests used:
# [1] = DPPH radical removal assay; settings: 500 μM; 30 min in the dark
# Experimental: An aliquot (20-μL DMSO solution) of a test sample (5 mM 2-MMBI derivatives 1–10 and 5 mM vitamin C [positive material]) was added to each well of a 96-well microplate containing 180 μL DPPH methanol solution (0.2 mM). After the mixture was left in the dark at 22 °C for 30 min, the optical density at 517 nm was recorded using a VersaMax™ reader. Each experiment was conducted independently in triplicate.
# [2] = molecular target: T1, mushroom TYR (Agaricus bisporus, UniProt C7FF04); test: Mushroom TYR activity assay with and without CuSO4; type: biochemical; settings: 20 μM derivative, L-tyrosine
# Experimental: To determine whether copper(II) ions influence the TYR-inhibitory activity of 2-MMBI derivatives, the effects of these derivatives on mushroom TYR activity were measured with and without CuSO4. Briefly, mushroom TYR aqueous solution (20 μL, 1 unit/μL) was mixed with 2-MMBI derivatives (1, 3, and 8–10) (10 μL, final concentration: 20 μM) and with the substrate solution (170 μL), comprising 17.2 mM phosphate buffer (pH 6.5) and 345 μM L-tyrosine, in the presence or absence of CuSO4 (50 μL, final concentration: 50 μM) in each well of a 96-well plate. […] Each assay was carried out independently in triplicate.
# [3] = molecular target: T1, mushroom TYR; test: Kinetic studies on mushroom TYR (Lineweaver–Burk and Dixon plots); type: biochemical; settings: L-dopa as substrate
# Experimental: Kinetic experiments were performed to obtain Lineweaver–Burk plots for the analysis of mushroom TYR kinetics. Mushroom TYR solution (20 μL, 150 units/mL) was added to each well of a 96-well microplate containing 2-MMBI derivatives (10 μL; 0, 7.5, 15, and 30 μM for 1; 0, 5, 10, and 20 μM for 3 and 8; and 0, 12.5, 25, and 50 μM for 9) and a substrate solution (170 μL) composed of sodium phosphate buffer (17.2 mM; pH 6.5) and L-dopa (various concentrations: 0.5, 1, 2, 4, 8, and 16 mM). […] Lineweaver–Burk plots for each 2-MMBI derivative were obtained by plotting the value of 1/[substrate] against the value of (min/ΔOD475). Lineweaver–Burk plots were transformed into corresponding Dixon plots by plotting the value of (min/ΔOD475) against the value of the 2-MMBI derivative concentration.
# [4] = test system: B16F10 cells; test: Melanin content measurement assay in B16F10 cells; type: cell-based, murine; settings: α-MSH 1 μM plus IBMX 200 μM, 72 h; for effect on B16F10 cellular melanin production at three concentrations: 2, 5, and 10 μM
# Experimental: A 6-well plate containing 5 × 10^3 B16F10 cells per well was incubated at 37 °C and 5% CO2 for 1 day. […] After 1 h, 1 μM α-MSH and 200 μM IBMX were added to each well, and the plate was subsequently incubated at 37 °C and 5% CO2 for 72 h. The cells were exposed to […] 1N-NaOH solution and cultured at 60 °C for 1 h after washing with PBS. The lysates were transferred to each well of a 96-well plate, and the optical density at 405 nm was recorded using a VersaMax™ reader. […] Each assay was independently performed three times.
# [5] = molecular target: T2, B16F10 cellular TYR (Mus musculus, UniProt P11344); test: TYR activity assay in B16F10 cells; type: cell-based, murine; settings: 2, 5, and 10 μM; α-MSH 1 μM plus IBMX 200 μM; 72 h
# T2 construct: The in situ cellular TYR activities of the 2-MMBI derivatives were investigated using B16F10 cells; endogenous in cells; host or cells: B16F10 murine melanoma cells stimulated with alpha-MSH and IBMX
# T2 sequence (P11344 19-533): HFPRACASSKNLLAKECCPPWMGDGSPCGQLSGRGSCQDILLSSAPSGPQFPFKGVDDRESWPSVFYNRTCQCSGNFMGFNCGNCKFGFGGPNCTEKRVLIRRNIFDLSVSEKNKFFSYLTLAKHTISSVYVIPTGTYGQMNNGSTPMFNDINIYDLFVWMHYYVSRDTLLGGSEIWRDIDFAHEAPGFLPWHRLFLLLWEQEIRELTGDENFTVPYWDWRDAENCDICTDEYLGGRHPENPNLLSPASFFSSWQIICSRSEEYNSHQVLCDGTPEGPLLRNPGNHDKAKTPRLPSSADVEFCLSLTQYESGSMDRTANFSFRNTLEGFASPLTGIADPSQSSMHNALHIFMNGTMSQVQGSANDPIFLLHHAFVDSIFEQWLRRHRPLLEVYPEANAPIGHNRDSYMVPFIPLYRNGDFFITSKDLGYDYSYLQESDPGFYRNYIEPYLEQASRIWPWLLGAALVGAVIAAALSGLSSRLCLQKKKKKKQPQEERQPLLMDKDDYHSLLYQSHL
# Experimental: A 6-well plate containing 5 × 10^3 B16F10 cells per well was incubated (37 °C and 5% CO2) for 1 day. […] Stimulators (1 μM α-MSH and 200 μM IBMX) were added after 1 h, and the plate was incubated (37 °C and 5% CO2) for 72 h. After washing with PBS, 100 μL lysis buffer consisting of 1% Triton X-100, 1 mM phenylmethylsulfonyl fluoride, and 50 mM sodium phosphate buffer (pH 6.5) in a volume ratio of 1:1:18 was added to each well. Following an incubation period of 30 min at −80 °C, the cell lysates were centrifuged at 12,000× g for 10 min at 4 °C to obtain the supernatants. […] Each assay was independently performed three times.
# [6] = test system: zebrafish larvae; test: Melanogenesis (depigmentation) assay using zebrafish embryos; type: in vivo; settings: for pigmentation area of zebrafish larvae (CS analyzer, dorsal and lateral views): derivatives 0.03 and 0.1 mM, kojic acid 20 mM
# Experimental: To assess depigmentation in vivo, wild-type zebrafish (Danio rerio) embryos were acquired free of charge from the Zebrafish Center for Disease Modeling (ZCDM) located at Chungnam National University in Daejeon, Republic of Korea. The zebrafish were raised in tanks maintained at 28 °C in the ZCDM. The tanks were oxygenated, and the tank lights were turned off for 10 h and on for 14 h. The zebrafish embryos used for in vivo depigmentation experiments were obtained through natural mating. The E3 solution for zebrafish embryos was prepared by dissolving 19.9 mg magnesium sulfate, 6.4 mg potassium chloride, 18.3 mg calcium chloride, and 146.1 mg sodium chloride in 500 mL distilled water. E3-MB (methylene blue) solution was prepared by adding MB to the E3 solution to create a 0.001% MB solution. The acquired zebrafish embryos were transferred to a culture dish containing the E3-MB solution. The culture dish was incubated at 28 °C until zebrafish embryos were used. Since zebrafish embryos are sensitive and can be easily killed by the chorion removal process 20 h post-fertilization (20 hpf), the chorion was removed at 24 hpf through treatment with pronase (Sigma-Aldrich, St. Louis, MO, USA). Five dechorionated zebrafish embryos were transferred to each well of 48-well microplates containing 250 μL E3 solution. […] Zebrafish larvae were anesthetized with tricaine at 76 hpf and placed on a 1% methylcellulose block to determine the degree of zebrafish larva depigmentation. Dorsal and lateral images of the zebrafish larvae were acquired using an SMZ745T microscope (Nikon, Tokyo, Japan). The pigmented areas of the dorsal and lateral images were obtained using CS analyzer 3.0 image analysis software (ATTO, Tokyo, Japan). Each assay (n = 7) was independently performed two times.
# [7] = Copper(II) ion-chelating activity using pyrocatechol violet; settings: test samples 100 μM, pH 6.0
# Experimental: Copper(II) ion-chelating activity was measured using pyrocatechol violet reagent, a copper(II)-chelating agent. Copper(II) sulfate solution (10 μL, 1 mg/mL) was added to each well of a 96-well microplate containing acetic acid–sodium acetate buffer (280 μL, 50 mM [pH 6.0]), 2-MMBI derivative (1–10; 10 μL, 100 μM as a final concentration), and pyrocatechol violet (6 μL, 4 mM). Absorbance was measured at 632 nm using a VersaMax™ reader after the microplate was incubated for 20 min at 24 °C. Cu(II) ion-chelating activity (%) = 100 × [(Abscon − Abssam)/Abscon] where Abscon and Abssam are the absorbances of the control and samples, respectively. Each experiment was independently performed in triplicate.
# [8] = Reactive oxygen species removal activity assay (SIN-1, DCFH); settings: test samples 40 μM; SIN-1 10 μM
# Experimental: To assess reactive oxygen species (ROS) removal activity, a DCFH solution was prepared by mixing 50 μL DCFH-DA (1.25 mM), 50 μL esterase (0.6 unit/μL), and 4.9 mL phosphate buffer (50 mM) and maintained in the dark for 30 min. The SIN-1 solution (10 μL) was added to each well of a 96-black well that contained the test sample (10 μL; 2-MMBI derivatives 1–10 and Trolox [positive material]) and phosphate buffer (180 μL). 2-MMBI derivatives, Trolox, and SIN-1 were exposed at final concentrations of 40, 40, and 10 μM, respectively. The prepared DCFH solution (50 μL) was added to each well after 10 min. The fluorescence intensity of 2′,7′-dichlorofluorescein in the wells was measured at 535 nm using a microplate reader (Berthold Advances GmbH & Co., Bad Wildbad, Germany) with an excitation wavelength of 485 nm. Each experiment was conducted independently four times.
# [9] = ABTS●+ scavenging assay; settings: 100 μM
# Experimental: A 2.45 mM K2S2O8 aqueous solution was mixed with a 7-mM ABTS aqueous solution in a 1:1 volume ratio. The mixture was left at 20 °C in the dark for 19 h. To adjust the adequate absorbance (0.70 ± 0.01) at 732 nm, the mixture was diluted with methanol. The diluted ABTS^●+ mixture (90 μL) in each well of a 96-well plate was mixed with a test sample (2-MMBI derivatives 1–10 and Trolox [positive material]; 10 μL in EtOH/DMSO [9/1 (v/v)] solution). All test samples were tested at a final concentration of 100 μM. Prior to the measurement of well optical density at 732 nm at 1-min intervals for 10 min using a VersaMax™ reader, the test sample-ABTS^●+ mixture was stored for 2 min in the dark. Each experiment was conducted independently in triplicate.
# [10] = CuSO4 50 μM added externally, read-out: inhibition of mushroom TYR activity with CuSO4
# [11] = no CuSO4 added externally, read-out: inhibition of mushroom TYR activity without CuSO4
# [12] = compared with kojic acid 20 mM, 48 h
# T1 sequence (C7FF04 2-392): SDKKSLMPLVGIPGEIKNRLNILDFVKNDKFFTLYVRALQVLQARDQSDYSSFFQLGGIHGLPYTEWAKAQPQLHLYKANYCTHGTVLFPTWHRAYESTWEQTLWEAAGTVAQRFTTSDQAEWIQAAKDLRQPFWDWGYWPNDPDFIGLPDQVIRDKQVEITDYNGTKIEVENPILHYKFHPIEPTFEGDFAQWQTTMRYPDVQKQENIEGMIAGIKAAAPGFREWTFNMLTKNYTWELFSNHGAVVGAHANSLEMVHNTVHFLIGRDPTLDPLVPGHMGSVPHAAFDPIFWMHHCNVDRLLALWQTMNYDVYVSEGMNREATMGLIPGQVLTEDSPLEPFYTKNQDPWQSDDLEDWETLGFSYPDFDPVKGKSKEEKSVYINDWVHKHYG
smiles,measurement,setting,value
"O=C1O[C@H]([C@@H](O)CO)C(O)=C1O [L-ASCORBIC acid, L-ascorbic acid]",DPPH radical scavenging activity,[1],97%
"COc1ccc2[nH]c(CS)nc2c1 [Derivative 3, (5-Methoxy-1H-benzo[d]imidazol-2-yl)methanethiol]",inhibition at 20 µM,[2]; [10],34%
same,inhibition at 20 µM,[2]; [11],86 to 89%
same,inhibition mechanism,[3],competitive TYR inhibitors
same,effect on B16F10 cellular melanin production at 10 μM,[4],inhibited melanin production more strongly than kojic acid
same,effect on B16F10 cellular melanin production at three concentrations,[4],significantly decreased the melanin levels increased by the stimulators in a concentration-dependent manner
same,effect on B16F10 cellular TYR activity,[5],significantly reduced stimulator-enhanced cellular TYR activity in a dose-dependent manner
same,depigmentation of zebrafish larvae at 0.03 mM,[6]; [12],much stronger depigmentation efficacy than kojic acid
same,depigmentation of zebrafish larvae at 0.1 mM,"[6]; 0.1 mM, compared with kojic acid 20 mM, 48 h",much more potent inhibition of melanin production in zebrafish larvae than kojic acid
same,"pigmentation area of zebrafish larvae (CS analyzer, dorsal and lateral views)",[6],reduced the pigmentation area more strongly than kojic acid in a concentration-dependent manner
"Cc1ccc2[nH]c(CS)nc2c1 [Derivative 8, (5-Methyl-1H-benzo[d]imidazol-2-yl)methanethiol]",inhibition at 20 µM,[2]; [10],63%
same,inhibition at 20 µM,[2]; [11],86 to 89%
same,inhibition mechanism,[3],mixed TYR inhibitors
same,effect on B16F10 cellular melanin production at 10 μM,[4],inhibited melanin production more strongly than kojic acid
same,effect on B16F10 cellular melanin production at three concentrations,[4],significantly decreased the melanin levels increased by the stimulators in a concentration-dependent manner
same,effect on B16F10 cellular TYR activity,[5],significantly reduced stimulator-enhanced cellular TYR activity in a dose-dependent manner
same,depigmentation of zebrafish larvae at 0.03 mM,[6]; [12],much stronger depigmentation efficacy than kojic acid
"O=[N+]([O-])c1ccc2[nH]c(CS)nc2c1 [Derivative 6, (5-Nitro-1H-benzo[d]imidazol-2-yl)methanethiol]",copper chelating activity,[7],35%
same,depigmentation of zebrafish larvae at 0.03 and 0.1 mM,"[6]; 0.03 and 0.1 mM, 48 h",did not exhibit significant depigmentation
same,ROS scavenging activity,[8],stronger ROS scavenging efficacy than the other derivatives
"Cc1c(C)c2c(c(C)c1O)CCC(C)(C(=O)O)O2 (stereo not drawn) [Trolox, reference compound]",ABTS●+ inhibition,[9],99%
same,ROS scavenging activity,[8],highest ROS scavenging activity
"NC(=S)Nc1ccccc1 [PTU, phenylthiourea]",copper chelating activity,[7],37%
"O=c1cc(CO)occ1O [Kojic acid, reference compound]",copper chelating activity,[7],27%
same,effect on B16F10 cellular melanin production at 10 μM,[4],decreased the stimulator-induced melanin levels
same,"depigmentation of zebrafish larvae, kojic acid","[6]; 20 mM, 48 h, compared to control",significantly reduced melanin pigments
same,"pigmentation area of zebrafish larvae (CS analyzer, dorsal and lateral views)",[6],significantly reduced pigmentation
